Counter-ions that a name gives are not always drawn. Like-named read-outs stand apart in the source and are kept apart here.
Tests used:
[1] = system: patient with erectile dysfunction; assay: Treatment of a patient having erectile dysfunction by injection of the reconstituted lyophilized composition; type: in vivo; conditions: for treatment effect on erectile dysfunction: general method of treatment of Example 3, single lyophilized agent only
Text: In one embodiment, a lyophilized composition may be used to treat a patient having erectile dysfunction. The lyophilized composition is formed by first providing an erectile inducing amount of at least one lyophilized compound selected from papverine hydrochloride, phentolamine mesylate, and alprostadil. The lyophilized composition is then reconstituted with a pharmaceutically acceptable solvent, such as sterilized water, to produce a reconstituted pharmaceutical solution. The reconstituted pharmaceutical solution is then administered to the patient. Once the lyophilized compounds are reconstituted, the reconstituted pharmaceutical solution may be administered to the patient by a variety of methods, including, but not limited to orally or by injection. In one embodiment, the composition is administered by injection. Any suitable method of injection, such as intracavernosal, intravenous, intraarterial, intramuscular, intraperitoneal, intraportal, intradermal or subcutaneous may be used.
A person, 75 kilogram (kg) […] patient is diagnosed with having erectile dysfunction. The patient is instructed to inject the lypholized preparation of 30 mg/ml papaverine, 1.0 mg/ml phentolamine mesylate, and 10 μg/ml alprostadil on a daily basis, if this is the intended frequency of sexual activity. The lyophilized papaverine, phentolamine, and alprostadil are prepared according to Example 1. The patient is examined after one month.
A 70 kg patient is apparently in good health. They present complaints of a loss of sexual desire and frequent erectile dysfunction. They report that although they are periodically interested in initiating sexual relations, on most occasions they are unable to maintain a high level of interest sufficiently long to initiate or to adequately respond to their spouse's initiating sexual activity. […] 1.0 mg/ml of lyophilized phentolamine is given to […]. The reconstituted phentolamine is injected about 0.5 hours before the patient intended to engage in sexual activity. The patient is examined after one month. They report that they take the drug combination 2-3 times per week.
Following the general method of treatment described in Example 3, non-critical variations are made to the composition of Example 3 such that only 10 μg/ml of lyophilized alprostadil is used.
Following the general method of treatment described in Example 3, non-critical variations are made to the composition of Example 3 such that only 30 mg/ml of lyophilized papaverine hydrochloride is used.

[2] = Accelerated aging of lyophilized composition (assay of active components after reconstitution); type: physicochemical; conditions: accelerated conditions 40° C./75% RH
Procedure: Aliquots of the clear solution (3 ml) were filtered through a sterilizing 0.22 um filter into lyophilization vials (5 ml). The filled lyophilization vials were topped, but not sealed, with lyophilization stoppers and freeze-dried according the following procedure. The topped vials were placed into a commercial freeze-drier. The temperature of the drier was lowered to about −40° C. and maintained at that temperature for at least 6 hours. […] Following the three temperature increasing steps, the vials were sealed under vacuum, the freeze-drier was returned to normal atmospheric pressure, and the vials were removed from the freeze-drier. In accelerated aging conditions, the active components of the lyophilized compositions of the present invention have an extended shelf live of as much as 120 days. The accelerated aging data for one, three, and four weeks is set out in Table 1. In Table 1, each week of accelerated aging corresponds to about one month of normal aging. [table]

[3] = general solubility, not lyophilized; cited from earlier work
[4] = Week One, each week about one month of normal aging

% of Expected ([2]; Week Four) [%] | Assayed Conc. ([2]; Week Four) [mg/mL] | % of Expected ([2]; Week One) [%] | Assayed Conc. ([2]; Week One) [mg/mL] | % of Expected ([2]; Week Three) [%] | Assayed Conc. ([2]; Week Three) | SMILES | treatment effect on erectile dysfunction [1] | solubility (physchem) [mg/mL] | solubility [3] | Assayed Conc. [2, 4] [mg/mL] | maintenance of erection ([1]; 70 kg patient, 1.0 mg/ml, injected about 0.5 hours before sexual activity, 2-3 times per week, examined after one month) | sexual desire / motivation ([1]; 70 kg patient, 1.0 mg/ml, injected about 0.5 hours before sexual activity, examined after one month)
95 | 0.0095 | 105 | 0.0105 | 100 | 0.01 mg/mL | CCCCC[C@H](O)/C=C/[C@H]1[C@H](O)CC(=O)[C@@H]1CCCCCCC(=O)O [Alprostadil, alprostadil] | same positive treatment effect |  |  |  |  | 
100 | 1.0 | 100 |  | 92 | .92 mg/mL | Cc1ccc(N(CC2=NCCN2)c2cccc(O)c2)cc1 [Phentolamine Mesylate, phentolamine mesylate] |  |  |  | 1.0 | no difficulty maintaining an erection to completion of sexual intercourse | feels motivated to initiate sexual activity

SMILES | % of Expected ([2]; Week Four) [%] | Assayed Conc. ([2]; Week Four) [mg/mL] | % of Expected ([2]; Week One) [%] | Assayed Conc. ([2]; Week One) [mg/mL] | % of Expected ([2]; Week Three) [%] | Assayed Conc. ([2]; Week Three) | treatment effect on erectile dysfunction [1] | solubility (physchem) [mg/mL] | solubility [3] | Assayed Conc. [2, 4] [mg/mL] | maintenance of erection ([1]; 70 kg patient, 1.0 mg/ml, injected about 0.5 hours before sexual activity, 2-3 times per week, examined after one month) | sexual desire / motivation ([1]; 70 kg patient, 1.0 mg/ml, injected about 0.5 hours before sexual activity, examined after one month)
COc1ccc(Cc2nccc3cc(OC)c(OC)cc23)cc1OC [Papaverine HCl, papaverine hydrochloride] | 78 | 23.4 | 65.7 |  | 67.7 | 20.3 mg/mL | same positive treatment effect | ~90 | about 30 mg/ml | 19.7 |  | 
